Values after ≈ are worked out from the molar mass of the structure shown.
What was measured:
Staphylococcus aureus = assay: Antimicrobial activity against Staphylococcus aureus SG511 by agar diffusion method; type: functional
[1] = tested on: Sporobolomyces salmonicolor; assay: Antimicrobial activity against Sporobolomyces salmonicolor 549 by agar diffusion method; type: functional

MIC (Staphylococcus aureus): 10 µg/mL (≈ 42 µM)
MIC [1]: 5 µg/mL (≈ 21 µM)
Compound: C=C1CC[C@H]2C(C)(C)[C@@H](O)CC[C@]2(C)[C@H]1CO [ISODRIMENEDIOL]

From ChEMBL document CHEMBL1158247, “Isolation of Isodrimenediol, a Possible Intermediate of Drimane Biosynthesis from Polyporus arcularius” (1996)
